Experimental data reported in patent US5258492A, “LHRH analogues with cytotoxic moieties at the sixth position” (The Administrators of the Tulane Educational Fund, priority 1991, dated 1993).

Key:
[1] = test system: human breast carcinoma cells; settings: prior art; cited from earlier work
rat mammary carcinomas = settings: prior art; compared with ovariectomy; cited from earlier work
[2] = test system: membrane receptors of rat Dunning tumor; assay: Affinity to membrane receptors of rat Dunning tumor using 125I-labeled [D-Trp6]LHRH; type: binding
Protocol: (§1) This is determined by using labelled LHRH and [D-Trp^6 ]LHRH. The assay is carried out similarly to that described by T. Kadar et al., Proc. Natl. Acad. Sci. USA, 85, 890-894 (1988).
(§2) *Affinity constants of the peptides for the first receptor class, Ka
(§3) (i.e. for high affinity binding sites) and for the second receptor class,
(§4) Ka2 (i.e. for low affinity binding sites) of human prostate cancer
(§5) and rat Dunning tumor, respectively, as determined by using ^125
(§6) Ilabeled [DTrp^6 ]LHRH.

[3] = test system: membrane receptors of human prostate cancer; assay: Affinity to membrane receptors of human prostate cancer using 125I-labeled [D-Trp6]LHRH; type: binding
Protocol: as §1, §2, §3, §4, §5, §6

[4] = target: T1, membrane receptors of pituitary of male rats (Rattus norvegicus, UniProt P30969); assay: Binding affinity for membrane receptors of rat pituitary using 125I-labeled [D-Trp6]LHRH; settings: Table 2, high affinity binding sites
T1 construct: from tissue; host or cells: pituitary of male rats (membranes)
T1 sequence (P30969 1-327): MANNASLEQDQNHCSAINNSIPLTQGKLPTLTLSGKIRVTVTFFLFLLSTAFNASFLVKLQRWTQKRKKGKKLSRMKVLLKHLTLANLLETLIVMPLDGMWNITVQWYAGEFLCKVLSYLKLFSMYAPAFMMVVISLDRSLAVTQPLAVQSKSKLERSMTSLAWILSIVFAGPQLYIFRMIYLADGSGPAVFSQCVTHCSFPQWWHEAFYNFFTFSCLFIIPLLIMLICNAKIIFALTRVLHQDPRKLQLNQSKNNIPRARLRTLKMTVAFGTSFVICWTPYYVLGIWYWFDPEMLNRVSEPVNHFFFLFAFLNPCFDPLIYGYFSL
Protocol: as §1
(§7) Table 2 presents the antiovulatory activity of the claimed compounds having LHRH-inhibiting properties. The inhibitory action was determined in vivo, in 4-day cycling rats as described [A. Corbin and C. W. Beattie, Endocr. Res. Commun., 2, 1-23 (1975)]. Affinities of the claimed compounds to membrane receptors of rat pituitary and human breast cancer cells are also given in Tables 1 and 2 as determined by using [^125 I,D-Trp^6 ]LHRH.
(§8) **Affinity constants of the peptides for the first receptor class (i.e.
(§9) for high affinity binding sites) of pituitary of male rats and human
(§10) breast cancer cells, respectively, as determined by using ^125
as §6
(§11) breast cancer cells, respectively, were determined by using ^125

4-day cycling rats = assay: In vivo antiovulatory activity in 4-day cycling rats; parameters: species or system rat
Protocol: This activity of the peptides is determined in 4-day-cycling rats as described [A. Corbin and C. W. Beattie, Endocr. Res. Commun., 2, 1-23 (1975)].
as §7
*LHRH-inhibiting potencies were assayed in 4day cyclic rats.

[5] = target: T2, membrane receptors of human breast cancer cells (Homo sapiens, UniProt P30968); assay: Binding affinity for membrane receptors of human breast cancer cells using 125I-labeled [D-Trp6]LHRH; settings: Table 2, high affinity binding sites
T2 construct: endogenous in cells; host or cells: human breast cancer cells (membranes)
T2 sequence (P30968 1-328): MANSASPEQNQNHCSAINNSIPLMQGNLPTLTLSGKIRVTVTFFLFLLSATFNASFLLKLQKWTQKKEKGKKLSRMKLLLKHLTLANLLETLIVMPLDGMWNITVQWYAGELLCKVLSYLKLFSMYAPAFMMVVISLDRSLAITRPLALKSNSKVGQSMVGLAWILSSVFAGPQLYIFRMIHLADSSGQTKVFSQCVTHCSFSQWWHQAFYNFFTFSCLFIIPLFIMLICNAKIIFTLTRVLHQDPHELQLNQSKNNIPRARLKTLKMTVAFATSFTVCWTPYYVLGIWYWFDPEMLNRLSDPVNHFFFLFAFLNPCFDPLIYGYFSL
Protocol: as §1, §7, §8, §9, §10, §6, §11

LHRH = settings: prior art; cited from earlier work
[6] = first receptor class (high affinity binding sites)
[7] = second receptor class (low affinity binding sites)

Row | Binding affinity, Ka1, for membrane receptors of pituitary [4] | Binding affinity, Ka1, for membrane receptors of cancer cells [5] | Compound | activity of Chlorambucil-linked LHRH agonist / antagonist analogue (in words) (LHRH) | other results
1 | 2.901 nM⁻¹ | 1.337 nM⁻¹ | Ac-D-Nal(2)-D-Phe(4Cl)-D-Trp-Ser-Arg-D-Lys[(Cu^++)(POLP)2 (DL-A2 pr)]-Leu-Arg-Pro-D-Ala-NH2 [Example XXII] |  | % Blockade of ovulation (4-day cycling rats; Dose 10 μg/rat): 60%
2 | 9.183 nM⁻¹ | 4.951 nM⁻¹ | Ac-D-Nal(2)-D-Phe(4Cl)-D-Trp-Ser-Arg-D-Lys[(Cu^++)(SAL)2 (DL-A2 pr)]-Leu-Arg-Pro-D-Ala-NH2 [XII] |  | % Blockade of ovulation (4-day cycling rats; Dose 3 μg/rat): 20%
3 | 8.676 nM⁻¹ | 4.418 nM⁻¹ | Ac-D-Nal(2)-D-Phe(4Cl)-D-Trp-Ser-Arg-D-Lys[(Ni^++)(SAL)2 (DL-A2 pr)]-Leu-Arg-Pro-D-Ala-NH2 [Example XV] |  | % Blockade of ovulation (4-day cycling rats; Dose 3 μg/rat): 20%

Second part, the compound before the results:

Row | Compound | Binding affinity, Ka1, for membrane receptors of pituitary [4] | Binding affinity, Ka1, for membrane receptors of cancer cells [5] | activity of Chlorambucil-linked LHRH agonist / antagonist analogue (in words) (LHRH) | other results
4 | CCNC(=O)[C@@H]1CCCN1C(=O)[C@H](CCCNC(=N)N)NC(=O)[C@H](CC(C)C)NC(=O)[C@@H](COC(C)(C)C)NC(=O)[C@H](Cc1ccc(O)cc1)NC(=O)[C@H](CO)NC(=O)[C@H](Cc1c[nH]c2ccccc12)NC(=O)[C@H](Cc1cnc[nH]1)NC(=O)[C@@H]1CCC(=O)N1 [Example A3] |  |  |  | growth of human breast carcinoma cells containing LHRH binding sites (in words) [1]: inhibited
5 | CC(C)C[C@H](NC(=O)[C@@H](COC(C)(C)C)NC(=O)[C@H](Cc1ccc(O)cc1)NC(=O)[C@H](CO)NC(=O)[C@H](Cc1c[nH]c2ccccc12)NC(=O)[C@H](Cc1cnc[nH]1)NC(=O)[C@@H]1CCC(=O)N1)C(=O)N[C@@H](CCCNC(=N)N)C(=O)N1CCC[C@H]1C(=O)NNC(N)=O [Example A4] |  |  |  | effectiveness in treatment of rat mammary carcinomas (in words) (rat mammary carcinomas): as effective as ovariectomy
6 | CC(C)C[C@H](NC(=O)[C@@H](Cc1c[nH]c2ccccc12)NC(=O)[C@H](Cc1ccc(O)cc1)NC(=O)[C@H](CO)NC(=O)[C@H](Cc1c[nH]c2ccccc12)NC(=O)[C@H](Cc1c[nH]cn1)NC(=O)[C@@H]1CCC(=O)N1)C(=O)N[C@@H](CCCNC(=N)N)C(=O)N1CCC[C@H]1C(=O)NCC(N)=O [[D-Trp^6]-LHRH, [D-Trp^6]LHRH, reference compound] |  |  |  | Dunning tumor Ka1 [2, 6]: 1.87 nM⁻¹; Human prostate cancer Ka1 [3, 6]: 0.04 nM⁻¹
7 | Ac-D-Nal(2)-D-Phe(4Cl)-D-Trp-Ser-Arg-D-Mel-Leu-Arg-Pro-D-Ala-NH2 [IIA] |  |  |  | Dunning tumor Ka2 [2, 7]: 25.1 µM⁻¹; Human prostate cancer Ka2 [3, 7]: 0.97 µM⁻¹
8 | [Chlorambucil-D-Leu^2,D-Leu^3,D-Ala^6 ]LHRH (2-10) |  |  | moderate activities | 
9 | [Chlorambucil-D-Phe^1,D-Phe^2,D-Trp^3,6 ]LHRH |  |  | practically inactive | 
10 | [D-Lys(Chlorambucil)^6 ] LHRH |  |  | moderate activities | 
